Experimental data published in ChEMBL document CHEMBL5727158, “Rho-associated protein kinase inhibitor, pharmaceutical composition comprising the same, as well as preparation method and use thereof” (2019).

Molecular target: Rho-associated protein kinase 2 (Homo sapiens, UniProt O75116)
Experiment: Biological Assay: The kinase IC50 was determined by a commercialized CISBIO kinase detection kit, HTRF KinEASE-STK S2 kit (62ST2PEC). ROCK2 (01-119) employed in the reaction was purchased from Carna Biosciences.Before the assay, the following working solutions as needed were formulated with corresponding reagents according to the instruction of the kinase detection kit: 1×kinase buffer, 5×STK-52 substrate working solution (1.5 μM) and 5×ATP working solution (1.5 μM), 5×ROCK2 kinase working solution, 4×Streptavidin-XL665 working solution, and 4×STK-Ab-Cryptate 2 detection solution. Then the assay was performed according to the following procedure.A solution of a compound at a concentration of 10000 nM was prepared with the 1×kinase buffer containing 2.5% DMSO. Gradient dilution of the solution of the compound was performed with the kinase buffer containing DMSO, so as to obtain solutions of a test compound at 9 different concentrations. In addition to wells of test compounds, a positive well (containing all the reagents except the compound) and a negative well (containing all the reagents except the test compound and kinase) were set. Except for the control wells (positive and negative wells), a solution of a test compound (4 μL) was added to each of the reaction wells, and a solution of 2.5% DMSO was added to the control wells. […]

Rho-associated protein kinase 2, sequence (O75116 whole entry): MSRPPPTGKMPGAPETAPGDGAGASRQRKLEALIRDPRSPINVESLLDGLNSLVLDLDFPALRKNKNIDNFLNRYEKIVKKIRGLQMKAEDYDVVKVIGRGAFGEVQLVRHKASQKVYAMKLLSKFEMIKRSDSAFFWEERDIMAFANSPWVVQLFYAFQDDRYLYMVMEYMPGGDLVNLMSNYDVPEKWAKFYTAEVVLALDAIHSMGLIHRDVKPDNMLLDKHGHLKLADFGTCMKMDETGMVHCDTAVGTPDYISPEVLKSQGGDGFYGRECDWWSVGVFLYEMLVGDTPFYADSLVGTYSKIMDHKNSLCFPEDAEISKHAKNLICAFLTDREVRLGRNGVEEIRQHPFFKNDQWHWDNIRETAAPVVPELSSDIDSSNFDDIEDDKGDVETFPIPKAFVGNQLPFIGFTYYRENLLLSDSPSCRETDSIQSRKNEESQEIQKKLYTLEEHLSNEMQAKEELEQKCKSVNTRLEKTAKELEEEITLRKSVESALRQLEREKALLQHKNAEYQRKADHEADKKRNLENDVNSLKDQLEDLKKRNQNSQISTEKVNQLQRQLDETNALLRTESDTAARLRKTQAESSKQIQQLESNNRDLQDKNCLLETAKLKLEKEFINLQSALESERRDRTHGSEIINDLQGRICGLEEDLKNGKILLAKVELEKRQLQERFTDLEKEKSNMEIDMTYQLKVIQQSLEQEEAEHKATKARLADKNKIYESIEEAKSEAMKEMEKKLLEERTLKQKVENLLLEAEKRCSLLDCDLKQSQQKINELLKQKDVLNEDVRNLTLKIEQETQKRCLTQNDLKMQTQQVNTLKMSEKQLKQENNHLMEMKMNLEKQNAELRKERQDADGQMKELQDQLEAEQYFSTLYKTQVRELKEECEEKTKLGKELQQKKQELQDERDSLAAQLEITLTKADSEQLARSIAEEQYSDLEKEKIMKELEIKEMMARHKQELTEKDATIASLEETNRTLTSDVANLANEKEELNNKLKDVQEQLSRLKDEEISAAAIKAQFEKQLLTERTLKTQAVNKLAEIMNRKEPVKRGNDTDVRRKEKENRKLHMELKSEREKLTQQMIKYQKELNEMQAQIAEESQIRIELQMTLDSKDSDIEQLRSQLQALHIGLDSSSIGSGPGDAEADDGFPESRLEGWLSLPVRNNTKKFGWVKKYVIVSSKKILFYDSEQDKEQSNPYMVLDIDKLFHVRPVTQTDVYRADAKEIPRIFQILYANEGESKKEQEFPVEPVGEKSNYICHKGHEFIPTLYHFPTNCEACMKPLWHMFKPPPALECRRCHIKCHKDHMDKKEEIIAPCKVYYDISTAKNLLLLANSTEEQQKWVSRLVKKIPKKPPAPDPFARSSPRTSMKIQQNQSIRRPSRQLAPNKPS

With `O=C(Nc1ccc(-c2cn[nH]c2)cc1)c1cc2ccc(-c3nccc(Nc4ccc5[nH]ncc5c4)n3)cc2[nH]1` the IC50 was 0.071 µM.
